Results reported in patent US7417025B2, “Use of poly-α2,8-sialic acid mimetic peptides to modulate NCAM functions” (Centre National de la Recherche Scientifique, priority 2002, dated 2008).

Experiments:
mAb 735 = test: Competitive ELISA of biotinylated peptide-BSA conjugates on anti-PSA mAb; type: binding; settings: for Binding of peptide to mAb 735 in competitive ELISA (percentage of binding): biotinylated peptide-BSA conjugate
From the text: • mAb 735 and 30H12 • MaxiSorp™ plates (NUNC) for coating the antibody: ELISA plates • microtiter plates (NUNC) for peptide dilution: dilution plates • Biotinylated peptide-BSA conjugates prepared as above described • Extravidin alkaline phosphatase-avidin conjugate (SIGMA E2636) • p-nitrophenyl-phosphatase alkaline substrate (SIGMA 104-105) 2.1.2) Buffers • PBS pH 7.4 • Blocking solution: 0.5% BSA in PBS • TBS • TBST: TBS containing 0.05% Tween 20 • Extravidin alkaline phosphatase-avidin conjugate solution: 1/5000 in TBST • Alkaline phosphatase substrate solution; 1 tablet in 5 ml 50 mM NaHCO3, 1 mM MgCl2 solution, […]) Method
(§1) Maxisorp™ plate wells were coated with 100 μl mAb solution (25 μg/ml) for 2 h at room temperature. The control wells of the ELISA plates were only coated with the blocking solution. In parallel, the peptide-BSA conjugate dilution plates were blocked with 200 μl blocking solution for 2 h. The antibody coated wells and the control wells were blocked with 200 μl blocking solution for 1 h. In parallel the peptide-BSA conjugate dilution plates were washed 6 times with TBST and 120 μl TBST was added to the wells. An appropriate volume of peptide-BSA conjugate solution was added to the first well and the volume adjusted to 140 μl with TBST. The peptide-BSA conjugate in well one was diluted in the ratio 1/7 by taking 20 μl out of the first well and transferring into the second also to achieve the total volume of 140 μl. This was repeated for the remaining wells. The peptide-BSA conjugate dilutions for the control wells were done the same way. The blocked ELISA plates were washed 6 times with TBST and the peptide-BSA conjugate dilutions or 100 μl of the mixed competitor solution was added to the wells. After incubation for 1 h, the wells were washed 10 times with TBST and 100 μl of the alkaline phosphatase substrate solution was added to the wells. The plates were read out after 10 to 60 min using a microplate reader at 405 nm.
(§2) The specificity of peptide p21 (SEQ ID NO: 1) was investigated in a competition ELISA using biotinylated p21-BSA conjugate and a randomized variant of p21 (p22) conjugate as a control. The results presented in Tables X and XI are expressed as percentage of binding by comparison with peptide p21 at the highest concentration (9.45 10^-5 M) which corresponds to 100% binding.

BSA = BSA (Bos taurus, UniProt P02769); test: Peptide-BSA conjugate ELISA, control wells coated only with blocking solution (BSA); type: binding; settings: biotinylated peptide-BSA conjugate, BSA-blocked wells, no mAb
From the text: • mAb 735 and 30H12 • MaxiSorp™ plates (NUNC) for coating the antibody: ELISA plates • microtiter plates (NUNC) for peptide dilution: dilution plates • Biotinylated peptide-BSA conjugates prepared as above described • Extravidin alkaline phosphatase-avidin conjugate (SIGMA E2636) • p-nitrophenyl-phosphatase alkaline substrate (SIGMA 104-105) 2.1.2) Buffers • PBS pH 7.4 • Blocking solution: 0.5% BSA in PBS • TBS • TBST: TBS containing 0.05% Tween 20 • Extravidin alkaline phosphatase-avidin conjugate solution: 1/5000 in TBST • Alkaline phosphatase substrate solution; 1 tablet in 5 ml 50 mM NaHCO3, 1 mM MgCl2 solution, pH 9.6. • mixed competitor solution: 1 mM colominic acid with a peptide-BSA conjugate gradient in TBST 2.1.3) Method
as §1, §2

[1] = peptide-BSA conjugate, in words

Chain of BSA (P02769 25-607): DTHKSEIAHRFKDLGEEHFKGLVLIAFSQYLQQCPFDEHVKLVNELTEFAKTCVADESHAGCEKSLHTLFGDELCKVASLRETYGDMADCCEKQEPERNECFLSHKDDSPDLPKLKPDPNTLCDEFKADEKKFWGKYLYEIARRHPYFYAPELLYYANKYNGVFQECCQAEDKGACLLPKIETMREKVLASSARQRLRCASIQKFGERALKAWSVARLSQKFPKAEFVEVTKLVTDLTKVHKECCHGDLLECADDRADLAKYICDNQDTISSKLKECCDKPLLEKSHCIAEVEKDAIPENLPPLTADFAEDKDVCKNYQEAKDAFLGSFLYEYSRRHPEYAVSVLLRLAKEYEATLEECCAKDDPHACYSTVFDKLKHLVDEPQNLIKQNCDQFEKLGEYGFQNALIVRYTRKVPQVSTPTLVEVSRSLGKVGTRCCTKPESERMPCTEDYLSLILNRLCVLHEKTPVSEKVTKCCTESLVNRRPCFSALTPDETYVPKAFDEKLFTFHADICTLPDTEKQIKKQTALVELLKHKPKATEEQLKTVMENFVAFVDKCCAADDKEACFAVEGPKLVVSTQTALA

PDHIFVFSPDLP [p22, reference compound]
Binding of peptide to mAb 735 in competitive ELISA (percentage of binding) (mAb 735; peptide 1.62 10^−9 M, + chondroitin sulfate C): 2 ± 0%
Binding of peptide to mAb 735 in competitive ELISA (percentage of binding) (mAb 735; peptide 1.62 10^−9 M, + colominic acid 1 mM): 0 ± 0%
Binding of peptide to mAb 735 in competitive ELISA (percentage of binding) (mAb 735; peptide 1.62 10^−9 M, no competitor): 0 ± 0%
Binding of peptide to mAb 735 in competitive ELISA (percentage of binding) (mAb 735; peptide 1.67 10^−5 M, + chondroitin sulfate C): 8 ± 1%
Binding of peptide to mAb 735 in competitive ELISA (percentage of binding) (mAb 735; peptide 1.67 10^−5 M, + colominic acid 1 mM): 5 ± 0%
Binding of peptide to mAb 735 in competitive ELISA (percentage of binding) (mAb 735; peptide 1.67 10^−5 M, no competitor): 9 ± 0%
Binding of peptide to mAb 735 in competitive ELISA (percentage of binding) (mAb 735; peptide 2.86 10^−9 M, + chondroitin sulfate C): 2 ± 0%
Binding of peptide to mAb 735 in competitive ELISA (percentage of binding) (mAb 735; peptide 2.86 10^−9 M, + colominic acid 1 mM): 0 ± 0%
Binding of peptide to mAb 735 in competitive ELISA (percentage of binding) (mAb 735; peptide 2.86 10^−9 M, no competitor): 0 ± 0%
Binding of peptide to mAb 735 in competitive ELISA (percentage of binding) (mAb 735; peptide 2.94 10^−6 M, + chondroitin sulfate C): 3 ± 1%
Binding of peptide to mAb 735 in competitive ELISA (percentage of binding) (mAb 735; peptide 2.94 10^−6 M, + colominic acid 1 mM): 0 ± 0%
Binding of peptide to mAb 735 in competitive ELISA (percentage of binding) (mAb 735; peptide 2.94 10^−6 M, no competitor): 1 ± 0%
Binding of peptide to mAb 735 in competitive ELISA (percentage of binding) (mAb 735; peptide 5.04 10^−10 M, + chondroitin sulfate C): 2 ± 0%
Binding of peptide to mAb 735 in competitive ELISA (percentage of binding) (mAb 735; peptide 5.04 10^−10 M, + colominic acid 1 mM): 0 ± 0%
Binding of peptide to mAb 735 in competitive ELISA (percentage of binding) (mAb 735; peptide 5.04 10^−10 M, no competitor): 0 ± 0%
Binding of peptide to mAb 735 in competitive ELISA (percentage of binding) (mAb 735; peptide 5.20 10^−7 M, + chondroitin sulfate C): 2 ± 0%
Binding of peptide to mAb 735 in competitive ELISA (percentage of binding) (mAb 735; peptide 5.20 10^−7 M, + colominic acid 1 mM): 0 ± 0%
Binding of peptide to mAb 735 in competitive ELISA (percentage of binding) (mAb 735; peptide 5.20 10^−7 M, no competitor): 0 ± 0%
Binding of peptide to mAb 735 in competitive ELISA (percentage of binding) (mAb 735; peptide 8.89 10^−11 M, + chondroitin sulfate C): 2 ± 0%
Binding of peptide to mAb 735 in competitive ELISA (percentage of binding) (mAb 735; peptide 8.89 10^−11 M, + colominic acid 1 mM): 0 ± 0%
Binding of peptide to mAb 735 in competitive ELISA (percentage of binding) (mAb 735; peptide 8.89 10^−11 M, no competitor): 0 ± 0%
Binding of peptide to mAb 735 in competitive ELISA (percentage of binding) (mAb 735; peptide 9.27 10^−8 M, + chondroitin sulfate C): 2 ± 1%
Binding of peptide to mAb 735 in competitive ELISA (percentage of binding) (mAb 735; peptide 9.27 10^−8 M, + colominic acid 1 mM): 0 ± 0%
Binding of peptide to mAb 735 in competitive ELISA (percentage of binding) (mAb 735; peptide 9.27 10^−8 M, no competitor): 0 ± 0%
Binding of peptide to mAb 735 in competitive ELISA (percentage of binding) (mAb 735; peptide 9.45 10^−5 M, + chondroitin sulfate C): 29 ± 0%
Binding of peptide to mAb 735 in competitive ELISA (percentage of binding) (mAb 735; peptide 9.45 10^−5 M, + colominic acid 1 mM): 27 ± 0%
Binding of peptide to mAb 735 in competitive ELISA (percentage of binding) (mAb 735; peptide 9.45 10^−5 M, no competitor): 32 ± 1%
Binding of peptide to mAb 735 (mAb 735; [1]): no binding
Effect of colominic acid or chondroitin sulfate C on binding to mAb 735 (mAb 735; [1]): no differences were observed
Binding of peptide to BSA control wells (percentage of binding) (BSA; peptide 1.62 10^−9 M): 0 ± 0%
Binding of peptide to BSA control wells (percentage of binding) (BSA; peptide 1.67 10^−5 M): 1 ± 1%
Binding of peptide to BSA control wells (percentage of binding) (BSA; peptide 2.86 10^−9 M): 0 ± 0%
Binding of peptide to BSA control wells (percentage of binding) (BSA; peptide 2.94 10^−6 M): 0 ± 0%
Binding of peptide to BSA control wells (percentage of binding) (BSA; peptide 5.04 10^−10 M): 0 ± 0%
Binding of peptide to BSA control wells (percentage of binding) (BSA; peptide 5.20 10^−7 M): 0 ± 0%
Binding of peptide to BSA control wells (percentage of binding) (BSA; peptide 8.89 10^−11 M): 0 ± 0%
Binding of peptide to BSA control wells (percentage of binding) (BSA; peptide 9.27 10^−8 M): 0 ± 0%
Binding of peptide to BSA control wells (percentage of binding) (BSA; peptide 9.45 10^−5 M): 3 ± 1%
